How the values were obtained:
[1] = molecular target: T1, Xanthine dehydrogenase/oxidase (Bos taurus, UniProt P80457); test: Inhibition of bovine xanthine oxidase assessed as reduction in uric acid levels using xanthine as substrate after 120 mins by spectrophotometry
[2] = molecular target: T1, Xanthine dehydrogenase/oxidase; test: Inhibition of bovine xanthine oxidase assessed as reduction in uric acid levels at 50 uM using xanthine as substrate after 120 mins by spectrophotometry; conditions: cattle, 2 h
[3] = molecular target: T1, Xanthine dehydrogenase/oxidase; test: Potency index, ratio of allopurinol IC50 to compound IC50 for inhibition of bovine xanthine oxidase; conditions: cattle
[4] = molecular target: T1, Xanthine dehydrogenase/oxidase; test: Mixed-type inhibition of bovine xanthine oxidase assessed as enzyme-inhibitor complex using xanthine as substrate after 60 secs by Lineweaver-Burk plot method
[5] = molecular target: T1, Xanthine dehydrogenase/oxidase; test: Mixed-type inhibition of bovine xanthine oxidase assessed as enzyme-inhibitor-substrate complex using xanthine as substrate after 60 secs by Lineweaver-Burk plot method

T1 sequence (P80457 whole entry): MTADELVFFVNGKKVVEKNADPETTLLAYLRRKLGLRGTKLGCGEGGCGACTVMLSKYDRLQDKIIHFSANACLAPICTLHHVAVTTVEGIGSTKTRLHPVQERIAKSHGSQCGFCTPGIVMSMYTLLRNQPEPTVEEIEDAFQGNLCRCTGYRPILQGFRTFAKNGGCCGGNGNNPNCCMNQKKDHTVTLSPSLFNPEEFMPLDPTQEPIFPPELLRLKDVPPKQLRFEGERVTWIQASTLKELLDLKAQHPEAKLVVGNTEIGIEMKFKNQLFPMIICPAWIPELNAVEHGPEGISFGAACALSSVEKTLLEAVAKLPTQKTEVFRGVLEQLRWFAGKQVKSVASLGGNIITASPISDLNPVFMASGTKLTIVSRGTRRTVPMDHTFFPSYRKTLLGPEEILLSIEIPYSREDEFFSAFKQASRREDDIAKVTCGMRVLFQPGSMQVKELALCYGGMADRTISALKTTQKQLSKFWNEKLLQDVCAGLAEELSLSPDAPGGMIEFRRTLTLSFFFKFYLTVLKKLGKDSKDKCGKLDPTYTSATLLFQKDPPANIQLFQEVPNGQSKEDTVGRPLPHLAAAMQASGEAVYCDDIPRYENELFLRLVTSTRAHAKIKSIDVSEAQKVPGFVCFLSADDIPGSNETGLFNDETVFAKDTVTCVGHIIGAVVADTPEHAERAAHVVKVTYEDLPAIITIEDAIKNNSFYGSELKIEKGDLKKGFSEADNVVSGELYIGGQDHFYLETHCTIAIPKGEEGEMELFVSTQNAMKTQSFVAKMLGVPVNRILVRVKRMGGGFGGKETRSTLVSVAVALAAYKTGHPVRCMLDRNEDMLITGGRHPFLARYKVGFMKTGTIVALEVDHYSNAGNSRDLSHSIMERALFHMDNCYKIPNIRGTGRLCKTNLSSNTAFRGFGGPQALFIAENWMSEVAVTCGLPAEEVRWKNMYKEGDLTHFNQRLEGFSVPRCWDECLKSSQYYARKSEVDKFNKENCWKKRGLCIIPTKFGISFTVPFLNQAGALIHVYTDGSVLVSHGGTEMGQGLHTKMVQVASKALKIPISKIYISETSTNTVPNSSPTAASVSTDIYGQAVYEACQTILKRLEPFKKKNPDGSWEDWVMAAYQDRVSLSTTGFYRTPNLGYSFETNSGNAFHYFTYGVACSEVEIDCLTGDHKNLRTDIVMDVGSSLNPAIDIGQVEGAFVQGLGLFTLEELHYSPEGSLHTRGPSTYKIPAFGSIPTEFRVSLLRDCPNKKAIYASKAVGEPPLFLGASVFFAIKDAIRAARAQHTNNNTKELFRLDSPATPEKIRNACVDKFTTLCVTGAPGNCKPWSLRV

IC50 [1] | inhibition at 50 µM [2] | SMILES | also measured
6.5 µM | 70.8% | O=Cc1ccc(F)cc1OCc1cn(Cc2ccc3c(c2)C(=O)c2ccccc2C3=O)nn1 | –
21.5 µM | 83.4% | O=Cc1cc(F)ccc1OCc1cn(Cc2ccccc2)nn1 | –
9 µM | 93% | CCCCCCn1cc(COc2ccc(F)cc2C=O)nn1 | –
16.8 µM | 70.3% | COc1cc(C=O)cc(OC)c1OCc1cn(Cc2ccc3c(c2)C(=O)c2ccccc2C3=O)nn1 | –
– | 31% | O=C1c2ccccc2C(=O)c2cc(Cn3cc(CO)nn3)ccc21 | –
– | 12.7% | O=C1c2ccccc2C(=O)c2cc(Cn3cc(COc4c(Cl)cccc4Cl)nn3)ccc21 | –
– | 7% | N#Cc1ccc(OCc2cn(Cc3ccc4c(c3)C(=O)c3ccccc3C4=O)nn2)cc1 | –
0.6 µM | 90.7% | O=Cc1ccccc1OCc1cn(Cc2ccc3c(c2)C(=O)c2ccccc2C3=O)nn1 | Ratio IC50 [3]: > 10; Ki [4]: 0.57 µM; Ki [5]: 0.94 µM
15.1 µM | 77.2% | O=Cc1cccc(OCc2cn(Cc3ccc4c(c3)C(=O)c3ccccc3C4=O)nn2)c1 | –
– | 21.1% | O=Cc1cc(Br)ccc1OCc1cn(Cc2ccc3c(c2)C(=O)c2ccccc2C3=O)nn1 | –
46.5 µM | 61.1% | O=Cc1cc(Cl)ccc1OCc1cn(Cc2ccc3c(c2)C(=O)c2ccccc2C3=O)nn1 | –
– | 43.5% | CCCCCCn1cc(COc2ccccc2C=O)nn1 | –
– | 20.1% | CC(=O)Nc1ccc(OCc2cn(Cc3ccc4c(c3)C(=O)c3ccccc3C4=O)nn2)cc1 | –
– | 9.8% | CCN(CC)c1ccc(C=O)c(OCc2cn(Cc3ccc4c(c3)C(=O)c3ccccc3C4=O)nn2)c1 | –
– | 18.4% | O=C1c2ccccc2C(=O)c2cc(Cn3cc(COc4ccccc4)nn3)ccc21 | –
– | 24.2% | O=C(O)c1ccccc1OCc1cn(Cc2ccc3c(c2)C(=O)c2ccccc2C3=O)nn1 | –
– | 46.7% | O=Cc1ccccc1OCc1cn(Cc2ccccc2)nn1 | –
30.5 µM | 67.5% | O=Cc1ccc(OCc2cn(Cc3ccc4c(c3)C(=O)c3ccccc3C4=O)nn2)cc1 | –
0.8 µM | 88% | O=Cc1cc(F)ccc1OCc1cn(Cc2ccc3c(c2)C(=O)c2ccccc2C3=O)nn1 | Ratio IC50 [3]: > 10
– | 19.4% | CC(=O)OCc1cn(Cc2ccc3c(c2)C(=O)c2ccccc2C3=O)nn1 | –

SMILES | IC50 [1] | inhibition at 50 µM [2] | also measured
Oc1ncnc2[nH]ncc12 [ALLOPURINOL] | – | 95.1% | –

Reference: ChEMBL document CHEMBL4000245, “Discovery and biological evaluation of some (1H-1,2,3-triazol-4-yl)methoxybenzaldehyde derivatives containing an anthraquinone moiety as potent xanthine oxidase inhibitors” (Bioorg Med Chem Lett, 2017)
